Source: the NIST ThermoML archive (doi:10.1021/je100211s)

Test: mn = molality of the nth substance listed, in mol/kg
Details: 101 kPa, Liquid; for viscosity: Capillary tube (Ostwald / Ubbelohde) method; for mass density: Vibrating tube method

CCCCCCCCCCCCCCCC[N+](C)(C)C.[Br-] [N,N,N-trimethyl-1-hexadecanaminium bromide] + O
Details | mass density, 298.15 K [kg/m3] | mass density, 308.15 K [kg/m3] | mass density, 318.15 K [kg/m3] | viscosity, 298.15 K [mPa·s] | viscosity, 308.15 K [mPa·s] | viscosity, 318.15 K [mPa·s]
m1 = 0.001 | 997.2 | 994.2 | 990.4 | 0.899 | 0.744 | 0.617
m1 = 0.003 | 997.3 | 994.3 | 990.5 | 0.91 | 0.752 | 0.622
m1 = 0.005 | 997.4 | 994.4 | 990.6 | 0.921 | 0.76 | 0.635
